Columns and labels:
Format in all cases: cell-based, human
[1] = test system: vascular smooth muscle cells (VSMC); test: WST-1 cell proliferation assay of VSMC stimulated with ox-LDL; settings: ox-LDL 40 μg/ml, 24 hours
Method: The experiments were conducted in the primary aortic smooth muscle cells (purchased as cryopreserved tertiary cultures from Cascade Biologics, OR, USA) at passages 4 to 8. The VSMC cells were maintained in an M231 culture medium supplemented with fetal bovine serum (FBS, 5%), human epidermal growth factor (10 ng/ml), human basic fibroblast growth factor (3 ng/ml), insulin ([…]), penicillin (100 units/ml), streptomycin ([…]), and Fungizone ([…]). The cultures were kept at a temperature of 37° C. in an atmosphere of 5% CO2 in air.
The transfection was performed using a siPort NeoFx reagent (Ambion) and VSMC cell proliferation and migration were evaluated 24 hours after the microRNA-195 transfection. In addition, simvastatin was used, a widely used lipid lowering drug and anti-atherosclerosis drug, to test the influence of microRNA-195 levels by simvastatin.
VSMC is an established model for atherosclerosis studies and when atherosclerosis incursion VSMC proliferation increases. A VSMC proliferation rate was used as a surrogate for the development of atherosclerosis, which was assessed by WST-1. By using a 1-3 μL siPort NeoFx (Ambion) reagent, 0-120 nM of microRNA-195 (Pre-miR™ miRNA, hsa-miR-195 (product ID PM10827), Ambion Inc.) was transfected into the VSMC cells while they were incubated with ox-LDL (40 μg/ml) for 24 hours. […] The microplates were then read by a spectrophotometer by measuring the absorbance of a dye with a wavelength of 450 nm and a reference wavelength of 600 nm (Benchmark PLUS Microplate Spectrophotometer, Bio-Rad) and plotted. […]
Cell proliferation of the VSMC was evaluated following incubation in ox-LDL (40 μg/ml) for 24 hours in the presence of microRNA-195 (Pre-miR miRNA, hsa-miR-195 (product ID PM10827), Ambion Inc.) (100 nM), simvastatin (1 nM) or Panax Notoginseng (in a form of water extract with concentration of 1 mg/ml; Chuang Song Zong Pharmaceutical co. Ltd), or in the presence of microRNA-195 (100 nM) with simvastatin (1 nM) or with Panax Notoginseng (in a form of water extract with concentration of 1 mg/ml). […]

[2] = test system: VSMC cells; test: Chemotactic migration of VSMC (Transwell); settings: 100 nM for 24 hours, ox-LDL 40 μg/ml
Method: Chemotactic migration is another characteristic of atherosclerosis and can be used as another line of evidence of atherosclerotic change for the cultured VSMC cells. This experiment was assayed by using a microchemotactic chamber and polycarbonate filters with pores of […] in diameter (Transwell, Millipore). After incubated with microRNA-195 (Pre-miR miRNA, hsa-miR-195 (product ID PM10827), Ambion Inc.) (100 nM) or an inhibitor (100 nM) for 24 hours, the VSMC cells were trypsinized and suspended with a serum free medium. A volume (300 μl) of a 1×10^4 cell suspension was placed in the upper chamber, the medium containing ox-LDL (40 μg/ml, each) was placed in the lower and upper chamber. The cell suspension was incubated at a temperature of 37° C. under 5% CO2 in air for 24 hours. After incubation, the VSMC cells on the upper side of the filter were scraped off, and the cells that had directly migrated to the lower side of the filter were trypsinized. The cells were fixed with methanol and stained with a Giemsa solution (Merck). Quantification of chemotactic migration was performed using the hemocytometer.

[3] = test system: MCP-1; test: MCP-1 secreted from VSMC, sandwich enzyme immunoassay
Method: Monocyte chemotactic protein-1 (MCP-1) is a well established atherosclerotic biomarker and it was examined to further test for the influence of microRNA-195 on the atherogenic biomarker. VSMC cells in six-well plates were grown to confluence and then cultivated in a serum-free medium for 24 hours before the experiment. After transfection of microRNA-195 for 24 hours, the cells were further incubated with ox-LDL and simvastatin for another 24 hours. The supernatants of the conditioned medium were collected and frozen at −70° C. The culture supernatants were analyzed to determine the MCP-1 using Sandwich Enzyme Immunoassay kits (BD Biosciences) according to the manufacturer protocol.

[4] = test system: VCAM-1; test: Real-time qPCR of VCAM-1 mRNA in HUVECs co-cultured with transfected HASMCs; settings: co-cultured with microRNA-195-transfected HASMCs
Method: (§1) HASMCs were transfected with negative control microRNA or microRNA-195 with or without the presence of oxLDL. MicroRNA-195-transfected HASMCs were co-cultured with HUVEC. Real-time qPCR analysis of mRNA levels for genes surrogating endothelial functions as well as atherosclerosis, such as vascular cell adhesion molecule-1 (VCAM-1), […] (TNF-a) and interleukin-6 (IL-6), and vasodilation gene, endothelial nitric oxide synthase (eNOS), were determined in HUVECs.

[5] = test system: TNF-a; test: Real-time qPCR of TNF-a mRNA in HUVECs co-cultured with transfected HASMCs; settings: co-cultured with microRNA-195-transfected HASMCs
Method: as §1

[6] = test system: IL-6; test: Real-time qPCR of IL-6 mRNA in HUVECs co-cultured with transfected HASMCs; settings: co-cultured with microRNA-195-transfected HASMCs
Method: as §1

For “microRNA-195: Pre-miR miRNA, hsa-miR-195 (product ID PM10827), Ambion Inc., which mimics precursor for mature human miR-195; mimic 5′-UAGCAGCACAGAAAUAUUGGC-3′ (SEQ ID NO: 5) (chemistry not given here)”, the “reduction of VSMC cell proliferation” value ([1]; 30 nM transfected) was 21%, the “reduction of VSMC cell proliferation” value ([1]; 60 nM transfected) was 29% and the “reduction of VSMC cell proliferation” value ([1]; 120 nM transfected) was 45%. The “chemotactic migration, percentage of migrated cells compared to control medium cells” value [2] was 137.6%, the “effect on reducing the atherogenic biomarker (MCP-1) compared with simvastatin” value ([3]; ox-LDL stimulation) was “stronger effect” and the MCP-1 levels ([3]; transfection 24 hours then ox-LDL 24 hours, culture supernatant) was “significantly decrease”. The “VCAM-1 mRNA level in HUVECs” value [4] was “suppresses”, the “TNF-a mRNA level in HUVECs” value [5] was “suppresses” and the “IL-6 mRNA level in HUVECs” value [6] was “suppresses”.

From patent US20130089601A1, “METHOD FOR TREATING ATHEROSCLEROSIS” (KAOHSIUNG MEDICAL UNIVERSITY, priority 2009, published 2013)
